Experimental data as given in ChEMBL document CHEMBL4406903, “Synthesis of benzopyran derivatives as PPARα and/or PPARγ activators” (Bioorg Med Chem, 2019).
The source made the active and inactive calls. No cut-off for these calls is given here.

What was measured:
Type in all cases: cell-based
[1] = biological target: T1, Peroxisome proliferator-activated receptor alpha (Homo sapiens) (UniProt Q07869); experiment: Transactivation of GAL4-fused human PPARalpha expressed in COS7 cells assessed as efficacy at 10 uM incubated for 24 hrs by luciferase reporter gene assay relative to WY-14643
T1 sequence (whole entry): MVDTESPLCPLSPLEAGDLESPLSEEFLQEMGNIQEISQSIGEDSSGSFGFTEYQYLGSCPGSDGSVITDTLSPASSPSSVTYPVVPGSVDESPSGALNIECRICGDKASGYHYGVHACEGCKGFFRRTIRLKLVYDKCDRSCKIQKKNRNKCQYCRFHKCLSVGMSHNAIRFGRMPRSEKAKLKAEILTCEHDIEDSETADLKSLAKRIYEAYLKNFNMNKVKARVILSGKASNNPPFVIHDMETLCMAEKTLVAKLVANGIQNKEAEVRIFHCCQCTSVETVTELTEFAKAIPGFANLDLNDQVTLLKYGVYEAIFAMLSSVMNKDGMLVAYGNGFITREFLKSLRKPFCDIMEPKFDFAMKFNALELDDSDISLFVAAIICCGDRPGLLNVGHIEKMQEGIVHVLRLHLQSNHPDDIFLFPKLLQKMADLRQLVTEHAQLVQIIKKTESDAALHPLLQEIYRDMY

[2] = biological target: T2, Peroxisome proliferator-activated receptor gamma (Homo sapiens) (UniProt P37231); experiment: Transactivation of GAL4-fused human PPARgamma expressed in COS7 cells assessed as efficacy at 10 uM incubated for 24 hrs by luciferase reporter gene assay relative to rosiglitazone
T2 sequence (whole entry): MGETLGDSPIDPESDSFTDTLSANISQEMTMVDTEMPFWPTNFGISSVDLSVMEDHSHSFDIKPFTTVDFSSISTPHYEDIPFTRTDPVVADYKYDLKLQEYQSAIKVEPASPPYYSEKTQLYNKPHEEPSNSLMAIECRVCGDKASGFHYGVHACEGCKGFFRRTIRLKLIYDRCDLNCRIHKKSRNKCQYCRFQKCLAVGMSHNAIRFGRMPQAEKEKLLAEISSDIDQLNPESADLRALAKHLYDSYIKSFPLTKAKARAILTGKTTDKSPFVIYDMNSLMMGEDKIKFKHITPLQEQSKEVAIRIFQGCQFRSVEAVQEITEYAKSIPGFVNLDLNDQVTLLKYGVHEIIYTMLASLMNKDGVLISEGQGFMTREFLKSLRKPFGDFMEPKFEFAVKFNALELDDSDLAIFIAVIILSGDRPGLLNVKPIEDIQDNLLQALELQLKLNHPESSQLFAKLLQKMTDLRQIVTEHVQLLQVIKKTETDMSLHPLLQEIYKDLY

[3] = biological target: T1, Peroxisome proliferator-activated receptor alpha (Homo sapiens); experiment: Agonist activity at GAL4-fused human PPARalpha expressed in COS7 cells incubated for 24 hrs by luciferase reporter gene assay
[4] = biological target: T2, Peroxisome proliferator-activated receptor gamma (Homo sapiens); experiment: Agonist activity at GAL4-fused human PPARgamma expressed in COS7 cells incubated for 24 hrs by luciferase reporter gene assay

SMILES | Efficacy [1] | Efficacy [2] | Activity [3] | Activity [4]
CC(=O)Oc1ccc2c(c1)C(=O)CC(C)(CCC(C)OC(C)=O)O2 (centres undefined) | 40% | inactive | Active | 
Cc1cccc(Nc2cc(Cl)nc(SCC(=O)O)n2)c1C |  | inactive |  | 
CC(C)=CCCC1(C)CC(O)c2cc(O)ccc2O1 (centres undefined) |  |  | inactive | inactive
CCCCCC1(C)CC(O)c2cc(O)ccc2O1 (centres undefined) |  |  | inactive | inactive
CCCCCC1(C)CC(=O)c2c(ccc(O)c2Cl)O1 (centres undefined) | inactive | 30% |  | Active

The remaining lines, values ahead:

Efficacy [1] | Efficacy [2] | Activity [3] | Activity [4] | SMILES
23% | inactive | Active |  | CC(C)(O)CCC1(C)CC(=O)c2cc(O)ccc2O1 (centres undefined)
23% | inactive | Active |  | CC(O)CCC1(C)CC(=O)c2cc(O)ccc2O1 (centres undefined)
21% | inactive | Active |  | CC1(CCC(=O)O)CCc2cc(O)ccc2O1 (centres undefined)
33% | inactive | Active |  | COC(=O)CCC1(C)CCc2cc(O)ccc2O1 (centres undefined)
16% | inactive | Active |  | CCOC(=O)CCC1(C)CC(=O)c2cc(O)ccc2O1 (centres undefined)
35% | inactive | Active |  | C=C(C)CCC1(C)CCc2cc(O)ccc2O1 (centres undefined)
